In PubChem BioAssay AID1963984 (Molecular Pharmacology Branch, DTP, NCI, 2024):
pIC50: −log10 of the molar value.

Tested on: 233499-124-R-J3-PDC spheroids with HUVEC/MSC, viability
Assay: Anticancer human tumor 233499-124-R-J3-PDC patient-derived colon adenocarcinoma cell line growth inhibition [PI3K]
Settings: for pIC50: curve of first compound; for viability, T/C: stronger effect = lower value; active = viability on the fitted dose curve at most 10% of control; inactive = the rest
In short: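 Multi-cell spheroids combine tumor cells with HUVEC and human MSCs, treated with targeted agents alone or with inavolisib, alpelisib, duvelisib or copanlisib. Concentrations fall in half-log steps from at or near clinical Cmax, or from 10 microM where Cmax is unknown; viability read-out.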
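Also: spheroids exposed to agents for seven days before readout.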
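For viability, T/C in this document: percent viability relative to DMSO vehicle control taken as 100%.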

CC(=O)c1c(C)c2cnc(Nc3ccc(N4CCNCC4)cn3)nc2n(C2CCCC2)c1=O + COc1c(OCCCN2CCOCC2)ccc2c3n(c(=NC(=O)c4cnc(N)nc4)nc12)CCN3
active: viability, T/C (second compound 1 µM, first compound 0.001 µM) 4.51% | viability, T/C (second compound 1 µM, first compound 0.00316 µM) 5.25% | viability, T/C (second compound 1 µM, first compound 0.01 µM) 12.8% | viability, T/C (second compound 1 µM, first compound 0.0316 µM) 10.7% | viability, T/C (second compound 1 µM, first compound 0.1 µM) 10.2%
< 7.00: pIC50 (second compound 0.00316 µM) | pIC50 (second compound 0.01 µM) | pIC50 (second compound 0.0316 µM) | pIC50 (second compound 0.1 µM)
inactive: viability, T/C (second compound 0.00316 µM, first compound 0.000316 µM) 106% | viability, T/C (second compound 0.00316 µM, first compound 0.001 µM) 106% | viability, T/C (second compound 0.00316 µM, first compound 0.00316 µM) 121% | viability, T/C (second compound 0.00316 µM, first compound 0.01 µM) 106% | viability, T/C (second compound 0.00316 µM, first compound 0.0316 µM) 76.5% | viability, T/C (second compound 0.00316 µM, first compound 0.1 µM) 61% | viability, T/C (second compound 0.01 µM, first compound 0.000316 µM) 86.5% | viability, T/C (second compound 0.01 µM, first compound 0.001 µM) 119% | viability, T/C (second compound 0.01 µM, first compound 0.00316 µM) 89.2% | viability, T/C (second compound 0.01 µM, first compound 0.01 µM) 89.3% | viability, T/C (second compound 0.01 µM, first compound 0.0316 µM) 83% | viability, T/C (second compound 0.01 µM, first compound 0.1 µM) 75.7% | viability, T/C (second compound 0.0316 µM, first compound 0.000316 µM) 90% | viability, T/C (second compound 0.0316 µM, first compound 0.001 µM) 95.8% | viability, T/C (second compound 0.0316 µM, first compound 0.00316 µM) 94.4% | viability, T/C (second compound 0.0316 µM, first compound 0.01 µM) 86.8% | viability, T/C (second compound 0.0316 µM, first compound 0.0316 µM) 86.2% | viability, T/C (second compound 0.0316 µM, first compound 0.1 µM) 86% | viability, T/C (second compound 0.1 µM, first compound 0.000316 µM) 56.3% | viability, T/C (second compound 0.1 µM, first compound 0.001 µM) 78.8% | viability, T/C (second compound 0.1 µM, first compound 0.00316 µM) 63.7% | viability, T/C (second compound 0.1 µM, first compound 0.01 µM) 73.2% | viability, T/C (second compound 0.1 µM, first compound 0.0316 µM) 61.6% | viability, T/C (second compound 0.1 µM, first compound 0.1 µM) 62.4% | viability, T/C (second compound 0.316 µM, first compound 0.000316 µM) 28.7% | viability, T/C (second compound 0.316 µM, first compound 0.001 µM) 32.3% | viability, T/C (second compound 0.316 µM, first compound 0.00316 µM) 30.3% | viability, T/C (second compound 0.316 µM, first compound 0.01 µM) 31.8% | viability, T/C (second compound 0.316 µM, first compound 0.0316 µM) 27.5% | viability, T/C (second compound 0.316 µM, first compound 0.1 µM) 31.2% | viability, T/C (second compound 1 µM, first compound 0.000316 µM) 13.7%
> 9.50: pIC50 (second compound 0.316 µM) | pIC50 (second compound 1 µM)
